Test results reported in article PMC12304826, “Redirecting the Peptide Cleavage Causes Protease Inactivation” (Angewandte Chemie (International Ed. in English), 2025).
Like-named read-outs stand apart in the source and are kept apart here.

Key:
[1] = molecular target: T1, human cathepsin B (Homo sapiens, UniProt P07858); assay: Cathepsin B inhibition assay (chromogenic substrate Cbz-Arg-Arg-pNA); type: biochemical; conditions: for remaining activity at 20 µM: 20 µM inhibitor, duplicate measurements, product formation after 60 min, read-out: r.a. (%), residual enzymatic activity of cathepsin B; for kinact/KI: 1 h
T1 construct: purchased Calbiochem, Darmstadt, Germany
Method: To get a first insight into the interaction with human cathepsin B, the inhibition of the enzyme‐catalyzed cleavage of a chromogenic peptide substrate was examined. […] Active compounds were subjected to kinetic measurements at five different concentrations (Tables 1 and S1).
Figure 1 Cathepsin B‐catalyzed hydrolysis of 500 µM (= 0.45 K m) of Cbz‐Arg‐Arg‐p‐nitroanilide in the absence (black) or presence of increasing concentrations of carbamate 4 (from top to bottom: 0.4, 0.8, 1.2, 1.6, and 2.0 µM).
1. Enzyme Inhibition Assays and Kinetic Data of Inhibition of Cathepsins B, L, K and S General. Human cathepsins were assayed either fluorimetrically or spectrophotometrically as noted below. The 10 mM inhibitor solutions were prepared in DMSO. The final concentration of DMSO in all assays was 2%. Non-linear regressions were conducted with GraFit 5. Residual cathepsin activity at an inhibitor concentration of 20 µM was determined from duplicate measurements based on the product formation after 60 min. Concentration dependent measurements were performed in duplicate measurements with five different inhibitor concentrations when the residual cathepsin activity in the presence of 20 µM inhibitor was below 70% (cathepsin B) or below 50% (cathepsins cathepsins L, K, and S). Progress curves were monitored for 60 min. First-order rate constants, kobs, were determined by non-linear regression following the equation [P] = vi × (1 – exp(-kobs × t))/kobs + d, where [P] is the product concentration, vi is the initial product formation rate, kobs is the observed first-order rate constant, and d is the offset. Mean values of kobs were plotted versus corresponding inhibitor concentrations [I], and second-order rate constants of inactivation, kinac/Ki, were obtained by linear regression. The equation kobs/[I] = (kinac/Ki)/(1 + [S]/Km) was used, where [S] is the substrate concentration and Km is the Michaelis-Menten constant. Standard errors (SE) refer to the linear regression.
Cathepsin B inhibition assay.[1] Human isolated cathepsin B (Calbiochem, Darmstadt, Germany) was assayed spectrophotometrically on a Cary 50 or 100 Bio, Varian, at 405 nm. The reactions were followed at 37 °C. Assay buffer was 100 mM sodium phosphate buffer pH 6.0, 100 mM NaCl, 5 mM EDTA, 0.01% Brij 35. A stock solution of human cathepsin B of 1.81 mg/mL or 0.47 mg/mL in 20 mM sodium acetate buffer pH 5.0, 1 mM ethylenediaminetetraactic acid (EDTA) was diluted 1:500 with assay buffer containing 5 mM dithiothreitol (DTT) and incubated for 30 min at 37 °C. A 100 mM stock solution of the para-nitroaniline (pNA)-based chromogenic substrate Cbz-Arg-Arg-pNA was prepared in DMSO.
The final concentration of the substrate was 500 μM (= 0.45 Km). Into a cuvette containing 960 μL assay buffer, inhibitor solution and DMSO in a total volume of 15 μL, and 5 μL of the substrate solution were added and mixed. The reaction was initiated by adding 20 μL of the enzyme solution. […]

[2] = molecular target: T2, human cathepsin S (Homo sapiens, UniProt P25774); assay: Cathepsin S inhibition assay (Cbz-Phe-Arg-AMC); type: biochemical
T2 construct: purchased Enzo Life Sciences, Lörrach, Germany
Method: 1. Enzyme Inhibition Assays and Kinetic Data of Inhibition of Cathepsins B, L, K and S General. Human cathepsins were assayed either fluorimetrically or spectrophotometrically as noted below. The 10 mM inhibitor solutions were prepared in DMSO. The final concentration of DMSO in all assays was 2%. Non-linear regressions were conducted with GraFit 5. Residual cathepsin activity at an inhibitor concentration of 20 µM was determined from duplicate measurements based on the product formation after 60 min. Concentration dependent measurements were performed in duplicate measurements with five different inhibitor concentrations when the residual cathepsin activity in the presence of 20 µM inhibitor was below 70% (cathepsin B) or below 50% (cathepsins cathepsins L, K, and S). Progress curves were monitored for 60 min. First-order rate constants, kobs, were determined by non-linear regression following the equation [P] = vi × (1 – exp(-kobs × t))/kobs + d, where [P] is the product concentration, vi is the initial product formation rate, kobs is the observed first-order rate constant, and d is the offset. Mean values of kobs were plotted versus corresponding inhibitor concentrations [I], and second-order rate constants of inactivation, kinac/Ki, were obtained by linear regression. The equation kobs/[I] = (kinac/Ki)/(1 + [S]/Km) was used, where [S] is the substrate concentration and Km is the Michaelis-Menten constant. Standard errors (SE) refer to the linear regression. […]
methyl-coumarin (AMC)-based fluorogenic substrate Cbz-Leu-Arg-AMC was prepared in DMSO. The final concentration of the substrate was 40 μM (= 13.3 Km). When using the spectrofluorometer, into a cuvette containing 960 μL assay buffer, inhibitor solution and DMSO in a total volume of 16 μL, and 4 […]
When using the plate reader, into a well containing 192 µL assay buffer, inhibitor solution and DMSO in a total volume of 3.2 µL and 0.8 µL of the substrate solution were added and mixed. The reaction was initiated by adding 4 µL of the cathepsin K solution.
Cathepsin S inhibition assay.[2] Human recombinant cathepsin S (Enzo Life Sciences, Lörrach, […]
nm and for emission 440 nm. The reactions were followed at 25 °C. Assay buffer was 100 mM sodium phosphate buffer pH 6.0, 100 mM NaCl, 5 mM EDTA, and 0.01% Brij 35. A stock solution of human cathepsin S of 70 μg/mL in 100 mM MES buffer, pH 6.5, 1 mM EDTA, 50 mM L-cysteine, 10 mM DTT, 0.5% Triton X-100 and 30% glycerol was diluted 1:100 with a 50 mM sodium phosphate buffer pH 6.5, 50 mM NaCl, 2 mM EDTA, 0.01% Triton X-100 and 5 mM DTT and incubated for 60 min at 37 °C. A 10 mM stock solution of the fluorogenic substrate Cbz-Phe-Arg-AMC was prepared in DMSO.
The assay was performed with a final substrate concentration of 40 µM (= 0.74 Km). When using the spectrofluorometer, into a cuvette containing 920 μL assay buffer, inhibitor solution and DMSO in a total volume of 16 μL, and 4 μL of the substrate solution were added and mixed. The reaction was initiated by adding 60 μL of the cathepsin S solution. When using the plate reader, into a well containing 188 µL assay buffer, inhibitor solution and DMSO in a total volume of 3.2 µL and 0.8 µL of the substrate solution were added and mixed. The reaction was initiated by adding […] of the cathepsin S solution.

[3] = pH 6, five inhibitor concentrations, duplicates, 60 min progress curves, 500 µM Cbz-Arg-Arg-pNA, pH 6.0, 37 °C, read-out: k inac/K i ± SE, second-order rate constant of enzyme inactivation, cathepsin B
[4] = 20 µM inhibitor, 60 min, read-out: Residual activity @ 20 µM (%) Cat S
[5] = inhibitor not soluble at 20 µM, calculated for 20 µM from IC50 at two lower concentrations, read-out: Residual activity @ 20 µM (%) Cat S, approximated [e]

T2 sequence (P25774 115-331): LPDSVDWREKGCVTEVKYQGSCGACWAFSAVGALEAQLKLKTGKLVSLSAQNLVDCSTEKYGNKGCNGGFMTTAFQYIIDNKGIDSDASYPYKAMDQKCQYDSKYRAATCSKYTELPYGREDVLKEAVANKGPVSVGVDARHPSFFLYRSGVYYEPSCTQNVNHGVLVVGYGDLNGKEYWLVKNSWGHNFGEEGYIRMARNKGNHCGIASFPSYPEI

Structure (SMILES)	remaining activity at 20 µM [1] [%]	kinact/KI [1, 3] [M⁻¹ s⁻¹]	remaining activity at 20 µM [2, 4] [%]	further results
CC(C)CC(NC(=O)Oc1ccccc1)C(=O)NC(Cc1ccccc1)C(=O)O (stereo not drawn) [Compound 1]	23	157 ± 13	97	
CC(C)C[C@H](NC(=O)Oc1ccc(Cl)cc1)C(=O)N[C@@H](Cc1ccccc1)C(=O)OC(C)(C)C [Compound 2]	92		≥ 98	
COC(=O)C(Cc1ccccc1)NC(=O)C(CC(C)C)NC(=O)Oc1ccc(Cl)cc1 (stereo not drawn) [Compound 3]	97		79	
CC(C)C[C@H](NC(=O)Oc1ccc(Cl)cc1)C(=O)N[C@@H](Cc1ccccc1)C(=O)O [Compound 4]	≤ 2	745 ± 5	83	
CC(C)CC(CNC(=O)Oc1ccc(Cl)cc1)C(=O)N[C@H](Cc1ccccc1)C(=O)O (stereo partly drawn) [Compound 5]	11	108 ± 5		kinac/Ki ± SE Cat S ([2]; five inhibitor concentrations, 60 min progress curves): 10.2 M⁻¹ s⁻¹
O=C(NC(CC1CCCCC1)C(=O)NC(Cc1ccccc1)C(=O)O)Oc1ccc(Cl)cc1 (stereo not drawn) [Compound 7]	≤ 2	2010 ± 110	72	kinac ([1]; calculated from kinac/Ki values and separately obtained Ki values): 0.0200 s⁻¹; Ki ([1]; non-linear regression of initial rates vi versus inhibitor concentration, read-out: Ki ± SE): 9.96 µM
CC(C)C[C@H](NC(=O)Oc1ccc(Cl)cc1)C(=O)N1CCC[C@H]1C(=O)O [Compound 8]	4	711 ± 40	≥ 98	
CC(C)CC(CNC(=O)Oc1ccc(Cl)cc1)C(=O)N1CCC[C@@H]1C(=O)O (stereo partly drawn) [Compound 9]	53	30.3 ± 4.1	92	
CC(C)C[C@H](NC(=O)Oc1ccc(Cl)cc1)C(=O)N1CCCC[C@H]1C(=O)O [Compound 10]	5	933 ± 40	≥ 98	
CC(C)C[C@@H](C(=O)N1CCC[C@H]1C(=O)O)N(C)C(=O)Oc1ccc(Cl)cc1 [Compound 15]			≥ 98	
CC(C)CC(OC(=O)Nc1ccc(Cl)cc1)C(=O)N[C@@H](Cc1ccccc1)C(=O)O (stereo partly drawn) [Compound 16]	91		56	
CC(C)CC(OC(=O)Nc1ccc(Cl)cc1)C(=O)N1CCC[C@H]1C(=O)O (stereo partly drawn) [Compound 17]	68		93	kinact/KI ([1]; five inhibitor concentrations, duplicates, 60 min progress curves, 500 µM Cbz-Arg-Arg-pNA, pH 6.0, 37 °C, read-out: k inac/K i ± SE, second-order rate constant of enzyme inactivation, cathepsin B): 10.6 ± 1.6 M⁻¹ s⁻¹
CC(C)C[C@H](NC(=O)Nc1ccc(Cl)cc1)C(=O)N[C@@H](Cc1ccccc1)C(=O)O [Compound 18]	90		78	
CC(C)C[C@H](NC(=O)Nc1ccc(Cl)cc1)C(=O)N1CCC[C@H]1C(=O)O [Compound 19]	95		≥ 98	
CC(C)C[C@H](NC(=O)Oc1ccc(Cl)c(NC(=O)Cc2ccccc2)c1)C(=O)N1CCC[C@H]1C(=O)O [Compound 20]	≤ 2	2860 ± 50	93	
CC(C)C[C@H](NC(=O)Oc1ccc(-c2ccccc2)c(NC(=O)Cc2ccccc2)c1)C(=O)N1CCC[C@H]1C(=O)O [Compound 21]	≤ 2	1340 ± 20	89	
CC(C)CC(NC(=O)Oc1ccc(Cl)c(NC(=O)C(c2ccccc2)c2ccccc2)c1)C(=O)N1CCCC1C(=O)O (stereo not drawn) [Compound 22]	≤ 2	3830 ± 70	87	
CC(C)C[C@H](NC(=O)Oc1cccc(Cl)c1)C(=O)N1CCC[C@H]1C(=O)O [Compound 23]	≤ 2	2760 ± 50	89	
CC(C)C[C@H](NC(=O)Oc1ccc(NC(=O)Cc2ccccc2)c(Cl)c1)C(=O)N1CCC[C@H]1C(=O)O [Compound 24]	≤ 2	6530 ± 310	90	
CC(C)CC(NC(=O)Oc1ccc(NC(=O)c2ccc(-c3ccccc3)cc2)c(Cl)c1)C(=O)N1CCCC1C(=O)O (stereo not drawn) [Compound 25]	≤ 2	3640 ± 60		remaining activity at 20 µM [2, 5]: 53%
CC(C)C[C@H](NC(=O)Oc1ccc(NC(=O)N(Cc2ccccc2)Cc2ccccc2)c(Br)c1)C(=O)N1CCC[C@H]1C(=O)O [Compound 26]			59	kinact/KI ([1]; pH 6, read-out: k inac/K i ± SE, second-order rate constant of enzyme inactivation, cathepsin B): 2660 ± 80 M⁻¹ s⁻¹
CC(C)CC(NC(=O)Oc1ccc(NC(=O)C(c2ccccc2)c2ccccc2)c(Br)c1)C(=O)N1CCCC1C(=O)O (stereo not drawn) [Compound 27]	≤ 2	6000 ± 100	60	
CC(C)CC(NC(=O)Oc1ccc(NC(=O)C(c2ccccc2)c2ccccc2)c(Cl)c1)C(=O)N1CCCC1C(=O)O (stereo not drawn) [Compound 28]	≤ 2	8180 ± 290	58	
CC(C)CC(NC(=O)Oc1ccc(NC(=O)C(c2ccccc2)c2ccccc2)c(Cl)c1)C(=O)NC(Cc1ccccc1)C(=O)O (stereo not drawn) [Compound 29]	≤ 2	11300 ± 600		remaining activity at 20 µM [2, 5]: 63%
